Test results as given in ChEMBL document CHEMBL4610123, “Structure-Based Drug Discovery of N-((R)-3-(7-Methyl-1H-indazol-5-yl)-1-oxo-1-(((S)-1-oxo-3-(piperidin-4-yl)-1-(4-(pyridin-4-yl)piperazin-1-yl)propan-2-yl)amino)propan-2-yl)-2'-oxo-1',2'-dihydrospiro[piperidine-4,4'-pyrido[2,3-d][1,3]oxazine]-1-carboxamide (HTL22562): A Calcitonin Gene-Related …” (J Med Chem, 2020).
Converted amounts (≈) assume the structure as drawn.

Columns and labels:
[1] = biological target: Calcitonin-gene-related peptide receptor, CALCRL/RAMP1 (Homo sapiens, UniProt O60894+Q16602); assay: Antagonist activity at human CGRP receptor in human SK-N-MC cells assessed as inhibition of CGRP-induced cAMP production preincubated for 30 mins followed by CGRP addition and measured after 30 mins by HTRF assay; format: functional, cell-based
[2] = Thermodynamic solubility of the compound at pH 6; format: physicochemical; details: buffer, read-out: Therm_solubility
[3] = Apparent permeability across apical to basolateral side in MDCK cells; format: ADME, cell-based, Canis lupus familiaris; details: dog
[4] = Lipophilicity, log D of the compound at pH 7.4; format: physicochemical; details: buffer
[5] = Stability of the compound in pH 5.5 solution at 50 degC assessed as loss of purity after 1 week; format: physicochemical; details: read-out: Drug degradation
[6] = Stability of the compound in pH 3 solution at 50 degC assessed as loss of purity after 1 week; format: physicochemical; details: read-out: Drug degradation
[7] = Half life in cynomolgus monkey hepatocytes; format: ADME, cell-based, Macaca fascicularis, Hepatocyte
[8] = Half life in human hepatocytes; format: ADME, cell-based, Hepatocyte
[9] = biological target: T1, AHR (aryl hydrocarbon receptor) (Homo sapiens, UniProt P35869); assay: Transactivation of AHR (unknown origin) assessed as induction of CYP450 at 3 uM relative to control; format: ADME; details: read-out: FC
T1 sequence (P35869 whole entry): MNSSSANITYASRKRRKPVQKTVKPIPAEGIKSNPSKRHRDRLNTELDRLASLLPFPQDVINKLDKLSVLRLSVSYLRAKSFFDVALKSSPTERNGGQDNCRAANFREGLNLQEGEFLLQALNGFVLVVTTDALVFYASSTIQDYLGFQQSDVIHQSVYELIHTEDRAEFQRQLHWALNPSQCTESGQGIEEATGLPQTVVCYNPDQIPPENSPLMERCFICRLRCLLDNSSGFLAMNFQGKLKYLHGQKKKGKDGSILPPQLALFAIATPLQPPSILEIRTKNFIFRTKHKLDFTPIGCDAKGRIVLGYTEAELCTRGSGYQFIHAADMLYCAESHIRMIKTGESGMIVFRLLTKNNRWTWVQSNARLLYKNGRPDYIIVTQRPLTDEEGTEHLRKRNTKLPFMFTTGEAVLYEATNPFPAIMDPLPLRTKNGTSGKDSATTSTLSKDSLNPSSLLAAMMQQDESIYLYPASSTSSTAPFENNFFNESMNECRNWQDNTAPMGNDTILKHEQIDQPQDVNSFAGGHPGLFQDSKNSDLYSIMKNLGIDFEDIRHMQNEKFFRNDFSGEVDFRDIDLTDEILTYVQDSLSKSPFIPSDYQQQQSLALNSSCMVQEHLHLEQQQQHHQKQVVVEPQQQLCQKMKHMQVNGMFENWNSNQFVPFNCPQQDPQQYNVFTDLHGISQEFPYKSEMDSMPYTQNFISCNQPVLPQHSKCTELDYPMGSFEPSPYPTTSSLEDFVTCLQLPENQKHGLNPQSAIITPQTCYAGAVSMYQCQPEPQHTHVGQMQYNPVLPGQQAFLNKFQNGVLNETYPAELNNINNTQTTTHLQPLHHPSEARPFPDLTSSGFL

[10] = biological target: Amylin receptor AMY1, CALCR/RAMP1 (Homo sapiens) (UniProt P30988+O60894); assay: Antagonist activity at human amylin-1 receptor; format: protein-complex assay
[11] = biological target: T2, Mas-related G-protein coupled receptor member X2 (Homo sapiens) (UniProt Q96LB1); assay: Agonist activity at MRGPX2 (unknown origin) at 10 uM relative to control
T2 sequence (whole entry): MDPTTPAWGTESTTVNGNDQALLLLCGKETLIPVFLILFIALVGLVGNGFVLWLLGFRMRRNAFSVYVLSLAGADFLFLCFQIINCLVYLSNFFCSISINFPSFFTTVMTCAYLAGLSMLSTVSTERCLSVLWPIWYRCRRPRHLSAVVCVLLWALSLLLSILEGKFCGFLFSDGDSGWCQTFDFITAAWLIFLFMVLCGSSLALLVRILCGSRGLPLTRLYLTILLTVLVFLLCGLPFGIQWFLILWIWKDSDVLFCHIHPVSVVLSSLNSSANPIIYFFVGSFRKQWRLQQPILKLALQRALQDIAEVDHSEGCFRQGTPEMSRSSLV

[12] = Solubility of the compound at pH 8.2 using amorphous form of sample; format: physicochemical; details: buffer
[13] = Solubility of the compound at pH 4 using amorphous form of sample; format: physicochemical; details: buffer
Cytochrome P450 2C19 = Cytochrome P450 2C19 (Homo sapiens, UniProt P33261); assay: Inhibition of CYP2C19 (unknown origin); format: ADME
Sequence of Cytochrome P450 2C19 (P33261 whole entry): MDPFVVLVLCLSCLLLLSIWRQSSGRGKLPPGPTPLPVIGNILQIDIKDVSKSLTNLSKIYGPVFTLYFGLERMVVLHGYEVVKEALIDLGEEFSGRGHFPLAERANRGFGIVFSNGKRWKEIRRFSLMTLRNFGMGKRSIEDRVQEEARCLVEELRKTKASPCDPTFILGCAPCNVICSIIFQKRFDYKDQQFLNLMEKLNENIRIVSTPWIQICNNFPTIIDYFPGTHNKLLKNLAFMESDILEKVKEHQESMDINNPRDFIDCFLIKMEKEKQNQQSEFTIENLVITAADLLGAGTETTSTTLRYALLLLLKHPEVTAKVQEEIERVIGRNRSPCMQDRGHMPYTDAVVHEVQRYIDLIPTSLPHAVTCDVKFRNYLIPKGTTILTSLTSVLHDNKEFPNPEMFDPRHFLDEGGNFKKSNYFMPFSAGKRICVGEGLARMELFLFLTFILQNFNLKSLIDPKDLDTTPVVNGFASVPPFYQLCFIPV

Cytochrome P450 1A2 = biological target: T3, Cytochrome P450 1A2 (Homo sapiens, UniProt P05177); assay: Inhibition of CYP1A2 (unknown origin); format: ADME
T3 sequence (P05177 whole entry): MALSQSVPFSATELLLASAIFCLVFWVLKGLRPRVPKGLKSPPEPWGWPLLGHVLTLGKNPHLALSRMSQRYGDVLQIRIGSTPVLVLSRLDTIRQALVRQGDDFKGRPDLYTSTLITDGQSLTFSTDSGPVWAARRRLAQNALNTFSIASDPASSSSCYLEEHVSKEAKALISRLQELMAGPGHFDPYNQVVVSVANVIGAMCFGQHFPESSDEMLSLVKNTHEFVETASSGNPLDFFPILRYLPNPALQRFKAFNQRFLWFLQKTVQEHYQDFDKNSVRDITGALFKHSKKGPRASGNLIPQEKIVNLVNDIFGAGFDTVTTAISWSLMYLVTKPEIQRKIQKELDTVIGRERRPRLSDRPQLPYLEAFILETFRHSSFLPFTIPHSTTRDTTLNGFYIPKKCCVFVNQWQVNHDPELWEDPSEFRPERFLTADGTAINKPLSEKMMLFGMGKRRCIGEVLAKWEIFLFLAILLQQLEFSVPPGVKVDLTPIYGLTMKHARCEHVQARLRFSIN

[14] = Genotoxicity in Salmonella typhimurium TA1537 by mini AMES test; format: toxicity; details: salmonella enterica subsp. enterica serovar typhimurium
Homo sapiens = species: Homo sapiens; assay: Selectivity ratio of antagonist activity at amylin-1 receptor (unknown origin) to antagonist activity at human CGRP receptor in human SK-N-MC cells; format: cell-based
[15] = Clearance in dog at 0.5 mg/kg, iv; format: ADME, organism-based, Canis lupus familiaris; details: in vivo
[16] = AUC (infinity) in rat at 1 mg/kg, sc; format: ADME, organism-based; design: dose 1 mg/kg, route subcutaneous, time infinity; details: in vivo
[17] = Half life in rat at 2 mg/kg, iv; format: ADME, organism-based; details: in vivo
[18] = Volume of distribution at steady state in rat at 2 mg/kg, iv; format: ADME, organism-based; details: in vivo, read-out: Vdss
[19] = Volume of distribution at steady state in cynomolgus monkey at 0.5 mg/kg, iv; format: ADME, organism-based, Macaca fascicularis; details: in vivo, read-out: Vdss
[20] = AUC (infinity) in cynomolgus monkey at 0.013 mg/kg, sc; format: ADME, organism-based, Macaca fascicularis; design: dose 0.013 mg/kg, route subcutaneous, time infinity; details: in vivo
[21] = AUC (infinity) in cynomolgus monkey at 0.5 mg/kg, sc; format: ADME, organism-based, Macaca fascicularis; design: dose 0.5 mg/kg, route subcutaneous, time infinity; details: in vivo
[22] = Toxicity in rat assessed as behavioral changes at 0.1 to 1 mg/kg/day, sc administered for 10 days; format: organism-based; details: in vivo, 240 h
[23] = system: CALCRL/RAMP2 (adrenomedullin AM1 receptor) (Homo sapiens); assay: Antagonist activity at human adrenomedullin-1 receptor

`Cc1cc(C[C@@H](NC(=O)N2CCC3(CC2)OC(=O)Nc2ncccc23)C(=O)N[C@@H](CC2CCNCC2)C(=O)N2CCN(c3ccncc3)CC2)cc2cn[nH]c12` [HTL-0022562] showed a pKb [1] of 10.2, a solubility thermodynamic [2] of 2920 µM (≈ 2230 µg/mL) and a Papp A→B [3] of 0.8 ×10⁻⁶ cm/s. For the same molecule, the logD [4] was -0.4, the degraded at 168 h [5] was 0.8% and the degraded at 168 h [6] was 0.4%. It also gave a half-life [7] greater than 5 h, a half-life [8] greater than 5 h and a fold induction at 3 µM [9] of 1.4. The pKb [10] was less than 6.3, the Activity [11] was 80% and the solubility [12] was 9 mg/mL (≈ 11.8 mM). For the same molecule, the solubility [13] was 174 mg/mL (≈ 228 mM), the IC50 (Cytochrome P450 2C19) was greater than 50.1 µM and the IC50 (Cytochrome P450 1A2) was greater than 50.1 µM. For the same molecule, the Activity [14] was “Non-Toxic”, the Selectivity ratio (Homo sapiens) was greater than 8000 and the clearance [15] was 10 mL/min/kg. It also gave an AUC(0-inf) [16] of 1280 ng·h/mL, a half-life [17] of 4.7 h and a Vd [18] of 1 L/kg. The Vd [19] was 0.4 L/kg, the AUC(0-inf) [20] was 81 ng·h/mL and the AUC(0-inf) [21] was 4210 ng·h/mL. The Activity [22] was “Non-Toxic” and the pKb [23] was less than 5.7.
